Here are results for five compounds from patent US5703079A, “Tetrahydrofuran antifungals” (Schering Corporation, priority 1995, dated 1997).

A short description of series [1]: serum levels, half lives and tissue distribution following oral dosing. It is filed as in vivo. To be noted: methyl cellulose formulation, mice, rats, dogs and monkeys.
For a further series, the system named is Aspergillus. Description: in vitro antifungal broth dilution, Aspergillus (37 strains). It is filed as cell-based, Aspergillus (flavus, fumigatus and other species). Particulars: for percentages of strains with MICs ≤1 mcg/ml / percentages of strains with MFCs ≤1 mcg/ml: Aspergillus, 37 strains; for percentages of strains with MICs ≤1 mcg/ml: Table Q; for percentages of strains with MFCs ≤1 mcg/ml: Table R.

The next series has as its system Candida albicans. Put plainly: in vitro antifungal broth dilution, Candida albicans (26 strains). It is filed as cell-based. Particulars: for percentages of strains with MICs ≤1 mcg/ml: Table Q; for percentages of strains with MFCs ≤1 mcg/ml: Table R; for MIC 90: Table S, MIC for 90% of the strains.
For a further series, the system named is Candida krusei. Description: in vitro antifungal broth dilution, Candida krusei (16 strains). The format is cell-based. To be noted: for percentages of strains with MICs ≤1 mcg/ml: Table Q; for percentages of strains with MFCs ≤1 mcg/ml: Table R.
The test system of series [2] is Candida tropicalis & stellatoidea. Description: in vitro antifungal broth dilution, Candida tropicalis & stellatoidea (5 strains). The format is cell-based. Particulars: for percentages of strains with MICs ≤1 mcg/ml: Table Q; for percentages of strains with MFCs ≤1 mcg/ml: Table R; for MIC 90: Table S, MIC for 90% of the strains.
Experimental: (§1) The in vitro antifungal activity tests were performed via conventional broth dilution methods in Sabouraud dextrose broth ("SDB") medium and Eagles Minimum Essential Medium ("EMEM") against a large number of fungi. Minimum Inhibitory Concentrations ("MICs") were measured after 24, 48 and 72 hour tests. In many cases, Minimum Fungicidial Concentrations ("MFCS") were measured after 48 and 72 hours.
For another series, the system named is Candida glabrata. Description: in vitro antifungal broth dilution, Candida glabrata (9 strains). The format is cell-based. Particulars: for percentages of strains with MICs ≤1 mcg/ml: Table Q; for percentages of strains with MFCs ≤1 mcg/ml: Table R; for MIC 90: Table S, MIC for 90% of the strains.
Another series has as its system Cryptococcus neoformans. Put plainly: in vitro antifungal broth dilution, Cryptococcus neoformans (3 strains). To be noted: for percentages of strains with MICs ≤1 mcg/ml: Table Q; for percentages of strains with MFCs ≤1 mcg/ml: Table R; for MIC 90: Table S, MIC for 90% of the strains. The format is cell-based.
The test system of a further series is Dermatophytes. Put plainly: in vitro antifungal broth dilution, dermatophytes (6 strains). To be noted: for percentages of strains with MICs ≤1 mcg/ml: Table Q; for percentages of strains with MFCs ≤1 mcg/ml: Table R. It is filed as cell-based, T. rubrum, T. mentagrophytes, and T. tonsurans.

Experimental for Aspergillus: as §1
Experimental for Candida albicans: as §1
Experimental for Candida glabrata: as §1
Experimental for Candida krusei: as §1
Experimental for Cryptococcus neoformans: as §1
Experimental for Dermatophytes: as §1

As for `CCC(C(C)O)n1ncn(-c2ccc(N3CCN(c4ccc(OCC5COC(Cn6cncn6)(c6ccc(F)cc6F)C5)cc4)CC3)cc2)c1=O` (centres unmarked) [drawing 24], in series [1], the “serum levels compared to azoles of similar structure” value is on record as “consistently higher serum levels”.
Take `CCC(C(C)O)n1ncn(-c2ccc(N3CCN(c4ccc(OCC5COC(Cn6cncn6)(c6ccc(F)cc6F)C5)cc4)CC3)cc2)c1=O` (centres unmarked) [drawing 25]: the “percentages of strains with MICs ≤1 mcg/ml” value in the series on Aspergillus came to 100%; in the series with Candida albicans, 100%; in the series with Candida krusei, 100%; in series [2], 100%; in the series on Candida glabrata, 22%; in the series with Cryptococcus neoformans it was 100%. For the same compound, the “percentages of strains with MICs ≤1 mcg/ml” value in the series with Dermatophytes worked out at 100%. The “percentages of strains with MFCs ≤1 mcg/ml” value turned out to be 50% with Aspergillus (listed as drawing 29); 100% in the series on Candida albicans; 88% in the series on Candida krusei (listed as drawing 29); 100% in series [2]; 22% in the series on Candida glabrata; 100% in the series with Cryptococcus neoformans. Besides, the “percentages of strains with MFCs ≤1 mcg/ml” value in the series with Dermatophytes (listed as drawing 29) is reported as 67%. The “MIC 90” value is reported as “.117 MCG/ML” in series [2] and “.05 MCG/ML” in the series with Cryptococcus neoformans.
Turning to `CCC(C(C)O)n1ncn(-c2ccc(N3CCN(c4ccc(OCC5COC(Cn6cncn6)(c6ccc(F)cc6F)C5)cc4)CC3)cc2)c1=O` (centres unmarked) [drawing 26], the “percentages of strains with MFCs ≤1 mcg/ml” value in the series on Aspergillus (listed as drawing 30) stood at 62%; in the series on Candida albicans, 100%; in the series on Candida krusei (listed as drawing 30) it was 94%; in series [2], 100%; in the series with Candida glabrata, 22%; in the series on Cryptococcus neoformans, 100%. Also, in the series with Dermatophytes (listed as drawing 30), the “percentages of strains with MFCs ≤1 mcg/ml” value came out at 83%. Besides, the “percentages of strains with MICs ≤1 mcg/ml” value in the series with Candida albicans stood at 100%; in series [2], 100%; with Candida glabrata, 22%; with Cryptococcus neoformans it was 100%. The “MIC 90” value against Candida albicans is “.174 MCG/ML”; in series [2], “.117 MCG/ML”; against Candida glabrata, 17.1 MCG/ML; in the series with Cryptococcus neoformans, “.007 MCG/ML”.
`CCC(C(C)O)n1ncn(-c2ccc(N3CCN(c4ccc(OCC5COC(Cn6cncn6)(c6ccc(F)cc6F)C5)cc4)CC3)cc2)c1=O` (centres unmarked) [drawing 27]: the “percentages of strains with MFCs ≤1 mcg/ml” value with Aspergillus (listed as drawing 31) came out at 89%; in the series with Candida albicans it was 100%; in the series on Candida krusei (listed as drawing 31), 100%; in series [2] it was 100%; with Candida glabrata, 22%; in the series on Cryptococcus neoformans it was 100%. Besides, the “percentages of strains with MFCs ≤1 mcg/ml” value in the series with Dermatophytes (listed as drawing 31) is 100%. In addition, the “percentages of strains with MICs ≤1 mcg/ml” value in the series with Candida albicans came to 100%; in series [2], 100%; in the series on Candida glabrata it was 33%; in the series with Cryptococcus neoformans it was 100%. For the same compound, the “MIC 90” value against Candida albicans was “.139 MCG/ML”; in series [2], “.354 MCG/ML”; in the series on Candida glabrata it was 28.8 MCG/ML; with Cryptococcus neoformans, “.101 MCG/ML”.
Regarding `OC(Cn1cncn1)(Cn1cncn1)c1ccc(F)cc1F` [fluconazole, reference compound], the “percentages of strains with MICs ≤1 mcg/ml” value was 0% with Aspergillus; 100% in the series with Candida albicans; 0% with Candida krusei; 100% in series [2]; 0% with Candida glabrata; 0% in the series on Cryptococcus neoformans. For the same compound, the “percentages of strains with MICs ≤1 mcg/ml” value in the series on Dermatophytes is recorded as 100%. Further, the “percentages of strains with MFCs ≤1 mcg/ml” value with Aspergillus is listed as 0%; with Candida albicans it was 100%; with Candida krusei it was 0%; in series [2], 100%; with Candida glabrata, 0%; in the series on Cryptococcus neoformans it was 0%. The “percentages of strains with MFCs ≤1 mcg/ml” value in the series with Dermatophytes was 0%. Further, the MFC in the series on Aspergillus (SDB, 37 species of Aspergillus, compared to fluconazole, read-out: geometric mean MFC) was no less than 32 µg/mL.
